# Results reported in the Deep4Chem optical property database.
# Assay: solvent given as SMILES
# [1] = in O=P(c1ccccc1)(c1ccccc1)c1ccccc1Oc1ccccc1P(=O)(c1ccccc1)c1ccccc1
structure (smiles),measurement,setting,value
Cc1cc(-n2c3ccccc3c3cc(C#N)ccc32)ccc1-c1ccc(S(=O)(=O)c2ccccc2)cc1C,emission maximum,in C1CCOC1,369.19 nm
same,emission maximum,in CC#N,369.19 nm
same,emission maximum,in Cc1ccccc1,352 nm
same,emission maximum,in ClCCl,369.19 nm
C(#Cc1ccccc1)C(C#Cc1ccccc1)=Cc1ccc(C=C(C#Cc2ccccc2)C#Cc2ccccc2)s1,emission maximum,in ClC(Cl)Cl,528 nm
[O-]c1c(-c2nc3ccccc3s2)cc2ccc3cccc4ccc1c2c34,emission maximum,in CC#N,553.72 nm
same,emission maximum,in CS(C)=O,555 nm
Cc1cc2c(ccc3c(C)[n+](C)c(C)cc32)c(C)[n+]1C,emission maximum,in CC#N,424 nm
CN(C)c1ccc2nc(/C=C/c3ccccc3)c(=O)oc2c1,emission maximum,in C1CCCCC1,488 nm
same,emission maximum,in C1COCCO1,533 nm
same,emission maximum,in CC#N,567 nm
same,emission maximum,in CC(C)=O,557 nm
same,emission maximum,in CCCCCCC,485 nm
same,emission maximum,in CCO,574 nm
same,emission maximum,in CCOC(C)=O,541 nm
same,emission maximum,in CN(C)C=O,571 nm
same,emission maximum,in CS(C)=O,581 nm
same,emission maximum,in Cc1ccccc1,523 nm
same,emission maximum,in ClC(Cl)Cl,542 nm
same,emission maximum,in ClCCl,547 nm
[O-][n+]1c(/C=C/c2ccc(/C=C/c3ccccc3)cc2)nc(N2CCOCC2)c2c1CCCC2,emission maximum,in ClCCl,531 nm
CC1(CCCCC(=O)NCCCCCCO)C(/C=C/C=C/C=C2/N(CCCS(=O)(=O)[O-])c3ccc(S(=O)(=O)[O-])cc3C2(C)C)=[N+](CCCS(=O)(=O)[O-])c2ccc(S(=O)(=O)[O-])cc21 (centres undefined),emission maximum,in O,672 nm
C[n+]1cc2ccc3c[n+](C)c4ccccc4c3c2c2ccccc21,emission maximum,in CC#N,504 nm
[NH3+]C(Cc1ccc(O)c(O)c1)C(=O)[O-] (centres undefined),emission maximum,in O,318 nm
CN1CCc2cc(C3=Cc4cccc[n+]4[B-](F)(F)O3)ccc21,emission maximum,in ClC(Cl)Cl,515 nm
[O-][n+]1c(/C=C/C=C/c2ccccc2)nc(N2CCOCC2)c2c1CCCC2,emission maximum,in ClCCl,546 nm
CC1(C)c2ccccc2N(c2ccc3c(ccc4nc5ccc6cc(N7c8ccccc8C(C)(C)c8ccccc87)ccc6c5nc43)c2)c2ccccc21,emission maximum,in C1CCCCC1,484 nm
same,emission maximum,in C1CCOC1,661 nm
same,emission maximum,in Cc1ccccc1,552 nm
same,emission maximum,in ClCCl,699 nm
CC(C)(C)c1ccc2c(c1)c1cc(C(C)(C)C)ccc1n2-c1cc[n+]2c(c1)-c1ccccc1O[B-]2(F)F,emission maximum,in Cc1ccccc1,473 nm
same,emission maximum,[1],488 nm
COc1ccc(/C=C/C2=[O+][B-](F)(F)OC(/C=C/c3ccc(OC)c4ccccc34)=C2c2ccccc2)c2ccccc12,emission maximum,in CC#N,649 nm
same,emission maximum,in CC(C)=O,631 nm
same,emission maximum,in CCOC(C)=O,603 nm
same,emission maximum,in CCOCC,583 nm
same,emission maximum,in ClC(Cl)(Cl)Cl,577 nm
same,emission maximum,in ClCCl,633 nm
CC(=O)c1ccc(-c2cnc3nn4ccccc4c3c2)cc1,emission maximum,in C1CCOC1,420 nm
CCCCC1=Cc2c3ccc4cccc5ccc(c6cc(-c7ccc(N(c8ccccc8)c8ccccc8)cc7)n(c26)P1(=O)c1ccccc1)c3c45 (centres undefined),emission maximum,in C1CCCCC1,502 nm
same,emission maximum,in C1CCOC1,541 nm
same,emission maximum,in C1COCCO1,526 nm
same,emission maximum,in CC#N,572 nm
same,emission maximum,in CC(C)=O,560 nm
same,emission maximum,in CO,563 nm
same,emission maximum,in Cc1ccccc1,518 nm
same,emission maximum,in ClC(Cl)Cl,537 nm
same,emission maximum,in ClCCl,551 nm
c1csc(-c2ccc(-c3cccs3)c3nsnc23)c1,emission maximum,in ClC(Cl)Cl,565 nm
CC1(C)c2ccccc2N(c2ccc(-c3nnc(-c4ccc(N5c6ccccc6C(C)(C)c6ccccc65)cc4)o3)cc2)c2ccccc21,emission maximum,in Cc1ccccc1,461 nm
same,emission maximum,[1],472 nm
c1ccc2c(c1)Sc1ccccc1N2c1ccc2c(c1)C1(CC1)c1cc(N3c4ccccc4Sc4ccccc43)ccc1-2,emission maximum,in Cc1ccccc1,494 nm
COc1ccc(C2=c3sc(-c4ccc(OC)cc4)cc3=[N+]3C2=Nc2c(-c4ccc(OC)cc4)c4sc(-c5ccc(OC)cc5)cc4n2[B-]3(F)F)cc1,emission maximum,in ClC(Cl)Cl,814 nm
Nc1ccc2ccc(O)cc2c1,emission maximum,in O,398 nm
CCCCN1C(=O)c2cc(Oc3ccc(C(C)(C)C)cc3)c3c4c(Oc5ccc(C(C)(C)C)cc5)cc5c6c(cc(Oc7ccc(C(C)(C)C)cc7)c(c7c(Oc8ccc(C(C)(C)C)cc8)cc(c2c37)C1=O)c64)C(=O)N(CCCC)C5=O,emission maximum,in ClC(Cl)Cl,615 nm
same,emission maximum,in ClCCl,607 nm
Cc1nnc(-c2cc(-n3c4ccccc4c4ccccc43)c(-n3c4ccccc4c4ccccc43)cc2-c2nnc(C)o2)o1,emission maximum,in CC#N,504.62 nm
same,emission maximum,in Cc1ccccc1,453 nm
same,emission maximum,in ClCCl,485.51 nm
CCCCCCC1(CCCCCC)c2cc(-c3ccc(-c4ccc(-c5ccc(-c6ccc7c(c6)C(CCCCCC)(CCCCCC)c6cc(-n8c9ccccc9c9ccccc98)ccc6-7)s5)c5nsnc45)s3)ccc2-c2ccc(-n3c4ccccc4c4ccccc43)cc21,emission maximum,in ClCCl,611 nm
Cc1ccc(-c2oc3cccc4c5c(-c6ccc(C)cc6)/c(=N/S(=O)(=O)C(F)(F)F)oc6cccc(c2c34)c65)cc1,emission maximum,in ClC(Cl)Cl,577 nm
N#Cc1c2nc3ccccn3c2nc2c1nc1ccccn12,emission maximum,in C1CCCCC1,460 nm
same,emission maximum,in C1COCCO1,470 nm
same,emission maximum,in CC#N,495 nm
same,emission maximum,in CN(C)C=O,515 nm
same,emission maximum,in ClC(Cl)Cl,475 nm
Cc1c(C(=O)c2c(F)cc(F)cc2F)c2ccc3cccc4c5cccc6ccc1c(c65)c2c34,emission maximum,in ClCCl,499 nm
CCN(C(C)=O)c1cc2c(cc1C)C(c1ccccc1C(=O)O)=C1CCCC(/C=C/C3=[N+](C)c4ccc5ccccc5c4C3(C)C)=C1O2,emission maximum,in CCO,715 nm
CC[Si](C)(C)c1cc2ccc3cccc4ccc(c1C(=O)NC(C)(C)C)c2c34,emission maximum,in ClC(Cl)Cl,383 nm
Cc1ccccc1C1=C2C=c3c(oc4c3ccc3ccccc34)=[N+]2[B-](F)(F)n2c1cc1c3ccc4ccccc4c3oc12,emission maximum,in C1CCCCC1,625 nm
same,emission maximum,in CCOC(C)=O,626.5 nm
same,emission maximum,in CO,625 nm
COc1ccc([C@@H]2C[C@](O)(c3ccccn3)C[C@](O)(c3ccccn3)[C@H]2C(=O)c2ccc(N(c3ccccc3)c3ccccc3)cc2)cc1,emission maximum,in C1CCOC1,495 nm
same,emission maximum,in CC#N,522 nm
same,emission maximum,in CCO,504 nm
same,emission maximum,in CCOC(C)=O,495 nm
same,emission maximum,in CN(C)C=O,521 nm
same,emission maximum,in ClCCl,513 nm
same,emission maximum,in c1ccccc1,468 nm
c1ccc(N(c2ccccc2)c2c3ccccc3c(N(c3ccccc3)c3ccccc3)c3ccccc23)cc1,emission maximum,in Cc1ccccc1,510 nm
CN1c2cc3nc4cc(Br)c(Br)cc4nc3cc2N(C)C1(C)C,emission maximum,in CCO,500 nm
CCN(CC)c1ccc2c(c1)oc(=O)c1c(-c3ccccc3C(=O)O)c3ccc(=[N+](CC)CC)cc-3oc12,emission maximum,in CCO,637 nm
same,emission maximum,in ClC(Cl)Cl,636 nm
same,emission maximum,in O,646 nm
CCCCCCCCC1(CCCCCCCC)c2cc(-c3ccc([N+](=O)[O-])cc3)ccc2-c2ccc(-c3ccc([N+](=O)[O-])cc3)cc21,emission maximum,in CN(C)C=O,569 nm
same,emission maximum,in CS(C)=O,589 nm
same,emission maximum,in ClC(Cl)Cl,538 nm
CCN1c2ccc(/C=N/Nc3ccccn3)cc2Sc2cc(-c3ccccc3)ccc21,emission maximum,in C1CCOC1,487 nm
same,emission maximum,in CS(C)=O,503 nm
same,emission maximum,in Cc1ccccc1,485 nm
same,emission maximum,in ClCCl,497 nm
O=S(=O)([O-])c1ccccc1/C=C/c1ccc(-c2nnc(-c3ccc(/C=C/c4ccccc4S(=O)(=O)[O-])cc3)o2)cc1,emission maximum,in C1CCOC1,415 nm
same,emission maximum,in CC(C)=O,416 nm
same,emission maximum,in CN(C)C=O,422 nm
O=C1C2=C(O[B-](F)(F)[n+]3c2ccc2ccccc23)c2ccc(N3CCOCC3)c3cccc1c23,emission maximum,in C1CCOC1,545 nm
same,emission maximum,in CC#N,553 nm
same,emission maximum,in CCO,552 nm
same,emission maximum,in CO,558 nm
same,emission maximum,in ClCCl,544 nm
